This note sets out measurements from US11072584B2, “Carbon monoxide releasing norbornenone compounds” (OTAGO INNOVATION LIMITED, priority 2015, dated 2021).

Series [1] is described as follows: CO release by HPLC analysis of breakdown of CO donor to its CO depleted form. The series is classed as physicochemical. As for the experimental part:
HPLC grade acetonitrile (CH3CN) was purchased from Merck Chemicals. MilliQ grade H2O was obtained from a Millipore purification system. HPLC grade trifluoroacetic acid (TFA) was purchased from Scharlau. HPLC analyses were conducted on an analytical RP-HPLC (Shimadzu LC-20AD equipped with an SPD-20A UV detector [210 and 254 nm]) using a Phenomenex Prodigy column (C-18, 5 μm, 3.00×250 mm) at 0.5 mL/min and heated to 40° C. Unless otherwise stated, the solvent system for all LC purposes was a mixture of A (0.05% TFA in H2O) and B (CH3CN). The method used was 10% to 100% B over 12.5 min, then 100% B for 2.5 min, unless otherwise stated.
In addition, the rate of CO release was measured in different physiological solutions at pH 7.4, 37° C.: phosphate buffered saline (PBS), Tris-sucrose buffer and UW solution using an amperiometric CO selective electrode (ISO-COP-2, World Precision Instruments (WPI), Inc, Sarasota, USA). The amount of CO released was recorded as the magnitude of electrode current generated on CO diffusion through a selective gas permeable membrane and oxidised to CO2 on the electrode. Current changes were recorded using a WPI TRB4100 4-channel free radical analyser with the poise potential set to 950 mV. […] The effect of pH upon the release of CO was assessed by adjusting the pH of Tris sucrose buffer to pH 6.6 using HCl and to pH 8.5 using NaOH. […]

Series [2] deals with MDCK cells. Description: crystal violet cell adhesion (CVCA) cell toxicity assay. The following applies: Canis lupus familiaris, MDCK.
Series [3] concerns MDCK cells. Kind of series: imaging of intracellular CO in living cells with fluorescent probe COP-1. It is filed as cell-based, Canine. The following applies: 10-50 μM, 37° C. and 8° C., bis-trifluoroacetate Salt. How it is done: A palladium CO-responsive small-molecule fluorescent probe (COP-1) was synthesised and carbonylation of the probe by CO confirmed as previously described.^41 A final concentration of 2 nM of COP-1 was added to each well of a 96-well plate containing 200 μL of Mg^2+ and Ca^2+ free phosphate solution (DPS, 37° C.). CORM-2, oCOm-19 and oCOm-21 (1-100 μM) were added to wells in triplicate, and zeroed against an equivalent volume of vehicle control added to COP-1. Emission spectra (λ 400-600 nm) were recorded at regular time intervals for one hour using a Spectromax Gemini fluorescent plate reader (Molecular Devices, Crawley, UK) at 37° C., (λex 475 nm, and the λem500 nm measured).
The ability of the CO donors to increase intracellular levels of CO was tested in Madin Darby Canine Kidney (MDCK) cells. […] Cells were incubated for 1 hour at either 8 or 37° C. then 1 μM COP-1 in DPS added per well and cells incubated for a further 15 minutes. Cells were imaged on a fluorescent inverted microscope (Nikon Eclipse Ti-E).

The test system of series [4] is MDCK cells.
The test system of series [5] is isolated rat aortic rings. Kind of series: isolated rat aortic ring vasorelaxation. Further details: species or system Lewis rats. The following applies: rings pre-contracted with phenylephrine; 37° C.; hydrochloride. How it is done: Transverse ring sections of aorta were isolated from male Lewis rats ([…], n=5-6 per group) under halothane anaesthesia and suspended under 2 g tension in an organ bath containing 10 mL of oxygenated (95% O2/5% CO2) Krebs Henseleit (KH) buffer containing 118 mM NaCl, 4.7 mM KCl, 1.2 mM KH2PO4, 1.2 mM MgSO4.7H2O, 22 mM NaHCO3, 11 mM glucose, 0.03 mM K^+ EDTA, and 2.5 mM CaCl2 as previously described.^43 Indomethacin (10 μM) was present in the buffer to exclude endogenous prostaglandins as potential modulators of vascular tone. Relaxation responses to oCOm-19 or oCOm-21 ([…]) were assessed using individual dosing in tissues pre-contracted with phenylephrine (0.1 μM). All results were subsequently expressed as a percentage of the maximal phenylephrine-induced contraction. Following repeat wash steps with Krebs Henseleit buffer, smooth muscle function and viability was confirmed by repeating the contractile response to phenylephrine. Aortic responses to individual EC50 concentrations of either CO donor in phenylephrine vasoconstricted rings were repeated separately, in the presence of the CO-chelator, myoglobin (5 μM) and the selective, irreversible inhibitor of sGC 1H-(1,2,4)oxadiazolo[4,3-a]quinoxalin-1-one, (ODQ, 10 μM), as previously described.^44

Series [6] is described as follows: oral bioavailability: blood carboxyhaemoglobin after oral gavage. It is filed as in vivo, Sprague Dawley rats. How it is done:
Male Sprague Dawley rats (300-320 g) were orally dosed with either oCOm-19 (133.33 μmol/kg) or oCOm-21 (33.33 μmol/kg) in ultra-pure water by oral gavage. Animals were observed every 15 minutes for any changes in behaviour or signs of distress. Tail vein blood samples were collected in heparinised capillary tubes immediately prior to and at 1-3 hours post CO-donor administration. Blood gas analysis on each sample was performed using a Radiometer ABL800 Flex analyser.

The nature of the next series: Solubility in water. It is filed as physicochemical.
The next series has as its system horse heart myoglobin. Kind of series: carboxymyoglobin spectrophotometric assay (CO binding to myoglobin). The series is classed as biochemical. The following applies: 25 to 400 μM; 5 to 90 minutes. How it is done: CO released from oCOm-19 and oCOm-21 was measured using an established carboxymyoglobin spectrophotometric assay,^39 adapted to a 96 well plate format to enable the simultaneous correction at all absorbance wavelengths arising from any potential interference from the donor compounds.^40 Freshly prepared horse heart myoglobin (66 μM) in a PBS solution (pH 7.4) was reduced with 10% w/v sodium dithionite and added to a 96 well plate. […] Absorption spectra (λ 500-600 nm) were run at ten minute intervals using a Spectramax 96-well spectrophotometer (Molecular Devices, Crawley, UK) at 37° C. CO gas saturated PBS (714 μM), was employed as a positive control.

In a further series the test system is cardiac tissue. Kind of series: static storage of cardiac tissue sections, TTC tissue viability stain. The arrangement: species or system Sprague Dawley (SD) rats. The note with it: 3 μM in DMEM; 24 and 48 hours cool static storage. How it is done:
The following protocol was used to assess the ex vivo protective effects of the oCOm compounds in solid, non-perfused biological tissues. Male Sprague Dawley (SD) rats (280-310 g) were decapitated and the hearts rapidly excised. Hearts were cut into 1 mm thick sections and placed in 3 ml of DMEM in sterile 24 well tissue culture plates. Two tissues sections from each heart were immediately stained without storing, with 1% 2,3,5-Triphenyltetrazolium chloride (TTC) in glucose supplemented DMEM for 15 minutes at 37° C. with continuous shaking. Theses tissues represent the baseline tissue viability prior to storage. This staining technique requires active dehydrogenase enzymes to be present in order to convert TCC to a brick red formazan pigment. […] Tissues were then stained with TTC and fixed as above. One control tissue section was left unstained for comparison. All samples were sectioned transversely, photographed and staining intensity assessed qualitatively.

The mark [7] stands for this setting: read-out: EC50 (μM), Active Compound.

“Also recorded” adds a separate entry of the source. Where a name gives a salt, the structure may show the parent alone. Read-outs that look alike come from different tables or passages of the source.

The EC50 is the concentration at which the effect is half-maximal. In the case of `CC12C(=O)C(C)(C(c3ccccc3)=C1c1ccccc1)C1(Br)C(=O)N(CCNCCN)C(=O)C21` (centres unmarked) [oCOm-23, 2-(2-(2-Aminoethyl)aminoethyl)-3a-bromo-3a,4,7,7a-tetrahydro-4,7-dimethyl-5,6-diphenyl-4,7-methano-1H-isoindole-1,3,8(2H)-trione bis-trifluoroacetate Salt], in series [1], the “time by which 50% of the donor CO maximum release capacity was depleted” value worked out at 75 min. The concentration giving a half-maximal response (EC50) in the series on MDCK cells [2] (setting [7]) is 10.1 µM; with MDCK cells [2] (read-out: EC50 (μM), Active Compound at 8° C.), more than 200 µM. Besides, the “intracellular CO, COP-1 / BODIPY fluorescence (in words)” value with MDCK cells [3] was “Increased BODIPY fluorescence intensity; also recorded: increased intracellular CO levels”. For the same compound, in the series on MDCK cells [4], the “cellular toxicity (in words)” value was “increased toxicity”.
For `CC12C(=O)C(C)(C(c3ccccc3)=C1c1ccccc1)C1(Br)C(=O)N(CCC(=O)NCCN)C(=O)C21.Cl` (centres unmarked) [oCOm-19, N-(2-Aminoethyl)-3-(3a-bromo-4,7-dimethyl-1,3,8-trioxo-5,6-diphenyl-3a,4,7,7a-tetrahydro-1H-4,7-methanoisoindol-2(2H)-yl)propanamide hydrochloride], the “vasorelaxant response (in words)” value in series [5] was “reversible, concentration-dependent vasorelaxant responses; also recorded: reversible, concentration-dependent vasorelaxation; also recorded: vasorelaxant effects”. In series [1], the “time by which 50% of the donor CO maximum release capacity was depleted” value came out at 40 min. In addition, the half-maximal effective concentration (EC50) with MDCK cells [2] (setting [7]) worked out at 86 µM. Also, the “effect on circulating carboxyhaemoglobin (in words)” value in series [6] (oCOm-19 and DB-13 133.3 μmol/kg, oCOm-21 33.3 μmol/kg, hydrochloride) is listed as “increase in circulating carboxyhaemoglobin”. Further, in [6] (observed every 15 minutes), the “behaviour / signs of distress after oral dosing” value is “body pressing behaviour indicative of abdominal discomfort”. In addition, the “solubility (in words)” value in the series “Solubility in water” (water or physiological buffers) is “water soluble”. Further, in “Solubility in water” (water, 21° C.), the “Solubility in water at 21° C.” value is 3200 µg/mL. Moreover, in the series with horse heart myoglobin, the “carbonmonoxymyoglobin formation (in words)” value was “time- and concentration-dependent increase in carbonmonoxymyoglobin formation”.
In the case of `CC12C(=O)C(C)(C(c3ccccc3)=C1c1ccccc1)C1C(=O)N(CCN)C(=O)C12.O=C(O)C(F)(F)F` (centres unmarked) [DB-21, 2-(4,7-Dimethyl-1,3,8-trioxo-5,6-diphenyl-3a,4,7,7a-tetrahydro-1H-4,7-methanoisoindol-2(2H)-yl)ethanaminium 2,2,2-trifluoroacetate], the “tissue viability by TTC (formazan) staining (in words)” value in the series on cardiac tissue is listed as “little staining was visible”.
